Assay results taken from US20150218516A1, “COMPOSITIONS AND METHODS FOR ENHANCING IMMUNE RESPONSES MEDIATED BY ANTIGEN-PRESENTING CELLS” (The Board of Regents of the University of Nebraska, priority 2007, published 2015).
Non-standard residues stand in square brackets, D forms with d. Residues, ends and D or L forms follow the SMILES beside them. No end group written: not given here.

What was measured:
MUC1 epitope peptide = test: Serum antibody response to MUC1 epitope peptide in immunized mice (RIA); assay type: in vivo, C57B16 and Balb/c mice; conditions: 100 μg i.p. with RIBI adjuvant, three immunizations, sera at 6 weeks
Description: The strains of mice used for this example were inbred females 6 to 12 week old C57B16(H-2^b) and Balb/c (H-2^d), which were obtained from Jackson labs (Bar Harbor, Me.). […] The MUC1 peptide selected for these studies contained a motif that may bind to the H-2K^b molecule of the C57B16 mice; therefore, a strain of mouse that lacked this class I molecule binding motif (Balb/c) was also studied to determine the relative contribution of the class I binding motif to the antigen presentation properties of these peptides.
(§1) Preimmune sera were obtained from mice, which were subsequently immunized intraperitoneally with 100 μg of the indicated peptide with RIBI adjuvant (MPL+TDM+CWS) (Sigma Immunochemicals). Animals were boosted twice at two week intervals using the same injection procedure. Sera were obtained following three immunizations (at 6 weeks).
For radioimmunoassay (RIA), anti-peptide antibodies were determined, before and at different time points after immunization, in 96-well microtiter plates (Dynatech Laboratories, Inc.). Plates were coated with 50 μl of a 100 μg/ml appropriate peptide in phosphate-buffered saline (PBS) pH 7.4 solution overnight at 4° C. The wells were blocked by incubation with 5% dry milk in PBS pH 7.4 for at least two hours. Anti-peptide antibody titers were determined using serial dilutions of sera. The sera were diluted with PBS containing 0.05% Tween-20, pH 7.4 (washing buffer) and 50 μl of each dilution was incubated at 37° C. for 1 hour. The wells were then drained, washed 4 times with PBS-Tween and 50 μl of ^125I-goat anti-mouse Ab (1-2×10^4 cpm/well) was added and incubated for 1 hr at 25° C. After washing, specific radioactivity was recorded in a gamma counter (1272 CliniGamma, LKB).
Experimental groups were as follows: • Group A. mice immunized with peptide (1) • Group B. mice immunized with peptide (2) • Group C. mice immunized with peptide (1) plus peptide (2) • Group D. mice immunized with peptide (3) • Group E. mice immunized with peptide (4).

SKRC-1 = conditions: low G250 expression; cord blood T lymphocytes
Method: (§2) An exemplary in vitro cytotoxicity assay comprises the following steps. Antigen presenting cells, such as dendritic cells, were obtained from bone marrow or blood. Dendritic cells were preferentially differentiated in culture through the addition of IL-4, GM-CSF, and TNFα for 7-10 days. Dendritic cells were then pulsed with peptides for 18 hours. MNCs were also isolated from spleens or blood (e.g., cord or peripheral) and cultured in IL-2 and GM-CSF for 7-10 days for enhanced lymphocyte proliferation. The pulsed dendritic cells were then co-cultured with the lymphocyte-enriched MNCs at a 1:10 ratio for 4 days. Lymphocyte-enriched MNC effector cells were then co-cultured with tumor target cells labeled with the bioactive fluorescent dye Calcein AM for 4 hours. Lysed cells were detected by photometrically measuring the released fluorescent dye.
(§3) Certain renal cell carcinomas express the tumor antigen G250. […] The fusion peptide was administered to APCs which were subsequently presented for 4 days to a lymphocyte-enriched population from cord blood as described hereinabove in Example 6.

SKRC-52 = conditions: cord blood T lymphocytes, dendritic cells exposed to the peptide
Method: as §2, §3

MUC1 peptide = test: MUC1 specific antibody isotype titers in immunized mice (ELISA); assay type: in vivo, C57BL6 mice
Method: as §1
Anti-peptide antibody isotype titers were determined by enzyme-linked immunosorbent assay (ELISA) carried out in 96-well microtiter plates. The plates were coated with 100 μg/ml of appropriate peptide in PBS, pH 7.4, and incubated overnight. The wells were blocked with 5% dry milk in PBS pH 7.4 for at least two hours. Anti-peptide titers were determined using serial dilutions of sera as described above. After the plates were washed 4 times, 50 μl of a 1:100 dilution of rabbit anti-mouse IgA, IgG1, IgG2a, IgG2b, IgG3 and IgM (Zymed) was added to each well and incubated at 25° C. for 1 hour. The plates were washed 4 times with washing buffer and 50 μl of 1:500 goat anti-rabbit conjugated to […] (Zymed) was incubated at 37° C. for 1 hour. Again, the plates were washed 4 times with washing buffer and bound enzyme was detected by the addition of 50 μl 1 mg/ml p-nitrophenyl phosphate (Sigma) in 10% diethanolamine (Sigma) pH 9.4. The reaction was stopped by the addition of 50 μl of 0.5 M sodium hydroxide and absorbance values (A405) were determined on Titertek Multiskan (Flow Laboratories, Irvine, Scotland).
The following experiment was performed in order to compare the potency of the molecular adjuvant of the present invention with a widely used method for enhancing the immune response to peptide epitopes. The objective was a direct comparison of the response to a construct of MUC1 epitope-C5a agonist and the same epitope conjugated to keyhole limpet hemocyanine (KLH) in mice.

C5aRs on Human PMNs = biological target: T1, C5aRs on Human PMNs (Homo sapiens, UniProt P21730); test: Competition assay with 125I-C5a for C5aR binding on intact human PMNs
T1 construct: endogenous in cells; host or cells: intact human PMNs (polymorphonuclear leukocytes)
T1 sequence (P21730 1-350): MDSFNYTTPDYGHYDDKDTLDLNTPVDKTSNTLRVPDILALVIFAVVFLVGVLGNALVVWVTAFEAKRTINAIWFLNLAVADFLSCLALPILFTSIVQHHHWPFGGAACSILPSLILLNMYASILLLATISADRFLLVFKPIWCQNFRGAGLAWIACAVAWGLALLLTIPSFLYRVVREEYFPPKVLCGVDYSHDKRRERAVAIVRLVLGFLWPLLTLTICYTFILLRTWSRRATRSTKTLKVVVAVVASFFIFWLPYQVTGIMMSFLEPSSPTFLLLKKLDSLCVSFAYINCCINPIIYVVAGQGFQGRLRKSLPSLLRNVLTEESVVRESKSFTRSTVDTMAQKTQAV
Method: C5a-like agonistic activity was assessed by the ability of the peptides to induce smooth muscle contraction of human umbilical artery and MPO release from human PMNs according to previously published methods (Sanderson et al., 1994, supra; Sanderson et al., J. Med. Chem. 38, 3669, 1995; Finch et al., J. Med. Chem. 40, 877, 1997). Full concentration-response curves were generated for individual peptides and natural C5a in each assay and the EC50 values (the concentration of peptide producing 50% of the maximal response to each peptide) were calculated. pD2 transforms [−log EC50 (M)] were calculated for each concentration-response curve and reported as the mean±SE. Peptide binding affinity to the C5aR was evaluated on intact human PMNs by a competition assay using ^125I-C5a according to previously described methods (Sanderson et al., 1995, supra; Finch et al., 1997, supra). Statistical analysis of the values obtained from pharmacologic assays was performed using one-way analysis of variance (ANOVA).

human PMNs = test: MPO release from human PMNs; assay type: cell-based; conditions: for pD2 ± SE: −log EC50 (M), mean ± SE, n=3
Method: (§4) Statistical analysis of the values obtained from pharmacologic assays was performed using one-way analysis of variance (ANOVA).

human umbilical artery = test: Smooth muscle contraction of human umbilical artery; assay type: cell-based; conditions: for EC50: concentration resulting in 50% maximum contraction; for pD2 ± SE: −log EC50 (M), mean ± SE, n=3
Method: as §4

κR(33-52) peptide = test: Peptide-specific ELISA of serum and protein A-purified antibody from immunized rabbits; assay type: in vivo
Method: Rabbits were immunized s.c. with 500 μg of […]aR (SEQ ID NO: 10) construct in complete Freund's adjuvant (GIBCO, Grand Island, N.Y.) on day 0 followed by booster injections on days 30 and 60 in incomplete Freund's adjuvant. Serum was collected starting 75 days after the initial immunization.
The presence of anti-peptide antibody was determined by using a peptide specific ELISA utilizing the free κR(33-52) peptide as previously described (Morgan et al. (1993) J. Immunol., 151: 377). Anti-κR(33-52) and normal rabbit γ-globulin (RGG) were purified by protein A Sepharose chromatography (Sigma) (Morgan et al. (1993) J. Immunol., 151: 377) prior to use.

[1] = mean titer of responders, sera screened against MUC1 peptide, five mice

YSFKPMPLaRKQGGFLGL (YSFKPMPL[dA]RKQGGFLGL)
antibody response (in words) (MUC1 epitope peptide): immune responses were not produced

CSCC[C@H](NC(=O)[C@@H]1CCCN1C(=O)[C@H](CCCCN)NC(=O)[C@H](Cc1ccccc1)NC(=O)[C@H](CO)NC(=O)[C@H](Cc1ccc(O)cc1)NC(=O)[C@H](CCCNC(=N)N)NC(=O)[C@H](CCCNC(=N)N)NC(=O)[C@@H](NC(=O)[C@H](CCCNC(=N)N)NC(=O)[C@H](C)NC(=O)[C@H](Cc1ccccc1)NC(=O)[C@H](C)NC(=O)[C@@H](NC(=O)[C@H](CO)NC(=O)[C@H](CC(C)C)NC(=O)[C@@H](N)Cc1c[nH]cn1)[C@@H](C)O)C(C)C)C(=O)N1CCC[C@H]1C(=O)N[C@@H](CC(C)C)C(=O)N[C@H](C)C(=O)N[C@@H](CCCNC(=N)N)C(=O)O (H-HLSTAFARVRRYSFKPMPL[dA]R-OH)
cytotoxicity against SKRC-1 (in words) (SKRC-1): exhibited cytotoxicity
cytotoxicity against SKRC-52 (in words) (SKRC-52): significant cytotoxicity

YKQGGFLGLYSFKPMPLaR
antibody response (in words) (MUC1 epitope peptide; listed as MUC1 epitope/C5a agonist peptide conjugate): appreciable antibody response
antibody response (in words) (MUC1 epitope peptide; listed as peptide 3): substantial responses
isotypes of the anti-peptide antibodies produced (MUC1 peptide; FIG. 3): IgM, IgG2a, and IgG2b
specificity of antibody response for the MUC1 epitope (MUC1 peptide; FIG. 4): high percentage of antibodies that are specific for the MUC1 epitope
Ab titer IgA (MUC1 peptide; [1]): 0
Ab titer IgG1 (MUC1 peptide; [1]): 0
Ab titer IgG2a (MUC1 peptide; [1]): 1260
Ab titer IgG2b (MUC1 peptide; [1]): 1780
Ab titer IgG3 (MUC1 peptide; [1]): 0
Ab titer IgM (MUC1 peptide; [1]): 6310
number of responders IgG2a (MUC1 peptide; responders / mice immunized): (5/5)
number of responders IgG2b (MUC1 peptide; responders / mice immunized): (5/5)
number of responders IgM (MUC1 peptide; responders / mice immunized): (5/5)

CC[C@H](C)[C@H](N)C(=O)N1CCC[C@H]1C(=O)N[C@@H](CCC(N)=O)C(=O)N[C@@H](CO)C(=O)N[C@@H](CC(C)C)C(=O)N[C@@H](CC(=O)O)C(=O)N[C@@H](CO)C(=O)N[C@@H](Cc1c[nH]c2ccccc12)C(=O)N[C@@H](Cc1c[nH]c2ccccc12)C(=O)N[C@H](C(=O)N[C@@H](CO)C(=O)N[C@@H](CC(C)C)C(=O)N[C@@H](CCCNC(=N)N)C(=O)N[C@@H](CCCNC(=N)N)C(=O)N[C@@H](Cc1ccc(O)cc1)C(=O)N[C@@H](CO)C(=O)N[C@@H](Cc1ccccc1)C(=O)N[C@@H](CCCCN)C(=O)N1CCC[C@H]1C(=O)N[C@@H](CCSC)C(=O)N1CCC[C@H]1C(=O)N[C@@H](CC(C)C)C(=O)N[C@H](C)C(=O)N[C@@H](CCCNC(=N)N)C(=O)NCC(=O)O)[C@@H](C)O (H-IPQSLDSWWTSLRRYSFKPMPL[dA]RG-OH)
binding to the C5aR (in words) (C5aRs on Human PMNs): significantly less affinity
MPO release from PMNs (in words) (human PMNs): unable to induce a full response
EC50 (human PMNs; 50% maximum release of myeloperoxidase): 2.56 µM
pD2 ± SE (human PMNs): 5.59 ± 0.28
potency in umbilical artery contraction (in words) (human umbilical artery): significantly less potent
EC50 (human umbilical artery): 6.78 µM
pD2 ± SE (human umbilical artery): 5.17 ± 0.13

YKQGGFLGL [reference compound]
antibody response (in words) (MUC1 epitope peptide): no appreciable increase in antibody response

CC[C@H](C)[C@H](NC(=O)[C@H](CCCNC(=N)N)NC(=O)[C@H](CCCNC(=N)N)NC(=O)[C@H](CCCNC(=N)N)NC(=O)[C@@H](C)NC(=O)[C@H](CC(C)C)NC(=O)[C@@H]1CCCN1C(=O)[C@H](CCSC)NC(=O)[C@@H]1CCCN1C(=O)[C@H](CCCCN)NC(=O)[C@H](Cc1ccccc1)NC(=O)[C@H](CO)NC(=O)[C@@H](N)Cc1ccc(O)cc1)C(=O)N1CCC[C@H]1C(=O)N[C@@H](CCC(N)=O)C(=O)N[C@@H](CO)C(=O)N[C@@H](CC(C)C)C(=O)N[C@@H](CC(=O)O)C(=O)N[C@@H](CO)C(=O)N[C@@H](Cc1c[nH]c2ccccc12)C(=O)N[C@@H](Cc1c[nH]c2ccccc12)C(=O)N[C@H](C(=O)N[C@@H](CO)C(=O)N[C@@H](CC(C)C)C(=O)O)[C@@H](C)O
binding to the C5aR (in words) (C5aRs on Human PMNs): bound poorly
MPO release from PMNs (in words) (human PMNs): inactive
pD2 ± SE (human PMNs): >3
potency in umbilical artery contraction (in words) (human umbilical artery): significantly less potent
EC50 (human umbilical artery): 39.4 µM
pD2 ± SE (human umbilical artery): 4.41 ± 0.06

FPGWAEPDSNGSAGSEDAQLYSFKPMPLaR
antibody concentration at which binding to free κR(33-52) was detectable (κR(33-52) peptide; protein A-purified antibody from immunized rabbits): less than 0.1 ng/ml
ED50 titer (κR(33-52) peptide; protein A-purified antibody, multiple bleedings): 1 to 10 ng/mL
serum titer against free κR(33-52) peptide (κR(33-52) peptide; rabbits, 500 μg s.c. in Freund's adjuvant): approximately 10^5
